Tests used:
[1] = test system: angiogenesis induced by hFGF-B in the CAM; experiment: Chick chorioallantoic membrane (CAM) assay, 14C-proline incorporation into collagenous protein; assay type: in vivo, chick embryo; conditions: for effect in the CAM assay: summary of the two experiments
Method: BTO-964 [methyl 3,5-diiodo-4(4'-methoxyphenoxy) benzaldehyde], and BTO-967 [methyl 3,5-diiodo-4(4'-methoxyphenoxy)-thiobenzoate] were tested in the CAm assay. The endpoint of the CAM assay was a quantiative determination of basement membrane biosynthesis by measuring the incorporation of ^14 C-proline into Type IV collagenous protein.
The CAM assay involves the development of live chick embryos in Petri dishes under special sterile conditions. Therefore, only limited numbers of embryos can be used for evaluation of compounds in a single experiment. BTO-964 and BTO-967 was tested in separate assays. A known angiogenesis inhibitor, 2-methoxyestradiol (2-ME), was used as the positive control, and human fibroblast growth factor (hFGF) was used to induce angiogenesis in the CAM.
For testing, a minimum amount of acetone-methanol (1:1) was added to the test compounds for sterilization. The acetone-methanol mixture was then evaporated to dryness in a sterile hood. The compounds were dissolved in dimethyl sulfoxide (DMSO) first and then diluted with saline containing methylcellulose. The final concentrations were 2% DMSO and 0.5% methylcellulose. all test solutions were added to each CAM in […] aliquots.
Fresh fertile eggs were incubated for three days in a standard egg incubator. On Day 3, eggs were cracked under sterile conditions and embryos were placed in 20×100 mm plastic Petri dishes and cultivated at 37° C. in an embryo incubator with a water reservoir on the bottom shelf. Air was continuously bubbled into the water reservoir by using a small pump so that the humidity in the incubator was kept constant. Observations were made daily to ensure that all embryos were healthy. Dead or unhealthy embryos were removed from the incubator immediately to avoid contamination. On Day 9, a sterile silicone ring cup was placed on each CAM and 0.5 mCi of ^14 C-proline with or without the test compound plus 2.5 ng of hFGF dissolved in saline containing 0.5% methylcellulose was delivered into each ring cup in a sterile hood. 2-ME was tested in parallel to serve as a reference compound. After addition of test materials, the embryos were returned to the incubator and cultivation continued. On Day 12, all embryos were transferred to a cold room at 4-10° C.
Using the procedure outlined in Maragoudakis, et al., (1989) J. Pharm. Exp. Ther. 251:679-682, the embryos were placed on ice and a piece of CAM 10 mm in diameter was cut off under each ring cup and placed in a separate tube. To each tube was added 1.0 ml of phosphate-buffered saline (PBS, pH 7.3) containing 0.11 mg cycloheximide and 0.17 mg dipyridyl. The tubes were placed in a boiling water bath for 10 min and then cooled to room temperature. The PBS in each tube was discarded after centrifugation at 3000×G for 10 min. The CAM residue was washed once with 3 ml of 15% TCA and then three times with 3 ml of 5% TCA. Centrifugation was carried out as described above between each washing. At this point all non-protein bound radioactivity was removed, and the CAM containing the newly synthesized ^14 C-collagenous protein was suspended in 0.9 ml of 0.1 N NaOH and 1.1 ml of HEPES buffer at pH 7.4. The pH of the sample was neutralized with 0.8 N HCl, using phenol red as indicator.
To digest the ^14 C-collagenous protein, 7.5 units of collagenase and 500 nmol of calcium chloride in […] of HEPES buffer was added to the above samples, and mixtures were incubated at 37° C. for 4 h. The reaction was stopped by adding 1.0 ml of 20% TCA containing 5 mg of tannic acid into each tube. After vortex mixing, the samples were centrifuged at 3000×G for 10 min. An aliquot of the clear supernatant was taken for scintillation counting to quantitate the radiolabeled tripeptides corresponding to basement membrane collagen and other collagenous materials synthesized by the CAM from ^14 C-proline. The CAM pellets in each tube were solubilized in 0.5 ml of 1.0 N NaOH by boiling in a water bath for 5 min. […]

[2] = test system: met-1 mouse mammary tumors; experiment: In vivo efficacy against met-1 mouse mammary tumors
Method: Mammary fat pads of Balb/c immunodeficient (nude) mice were implanted with 1 mm^3 of mammary tumor tissue. These mammary tumors originated from the met-1 mouse mammary tumor cell line and have been propagated by passaging in vivo. When palpable tumors appeared, animals were subdivided into various treatment groups and treated daily with intraperitoneal injections of control vehicle, BTO-967 (50 mg/kg), or BTO-964 (50 mg/kg). A group of untreated control animals was included in the study, because agents used in the vehicle for these test articles (DMSO/ethanol/CremophorEL/PEG 400, 1: 0.5 : 0.5: 6) were themselves found to have cytotoxic activity. Twice weekly, the volumes of the tumors in each animal in each group were measured to gather information on tumor growth (volume) as a function of type of treatment, dose, and time.

| Compound | % Inhibition ([1]; 8.3 μg/CAM, BTO-964 experiment) [%] | 14C-Proline Incorporated into Collagenous Protein (cpm/mg protein) (mean ± S.E.) ([1]; 8.3 μg/CAM, BTO-964 experiment, control 11200 ± 829) [cpm/mg_protein] | % Inhibition ([1]; 25 μg/CAM, BTO-964 experiment) [%] | 14C-Proline Incorporated into Collagenous Protein (cpm/mg protein) (mean ± S.E.) ([1]; 25 μg/CAM, BTO-964 experiment, control 11200 ± 829) [cpm/mg_protein] | % Inhibition ([1]; 75 μg/CAM, BTO-964 experiment) [%] | 14C-Proline Incorporated into Collagenous Protein (cpm/mg protein) (mean ± S.E.) ([1]; 75 μg/CAM, BTO-964 experiment, control 11200 ± 829) [cpm/mg_protein] | effect in the CAM assay [1] | response of Met-1 tumors to treatment ([2]; 50 mg/kg daily i.p.) | Tumor Volume (mm^3) ([2]; 50 mg/kg daily intraperitoneal, 4 weeks post initiation of treatment, mean ± SEM, vehicle 1238 ± 170, none 1570 ± 219) | % Inhibition ([1]; 8.3 μg/CAM, BTO-967 experiment) [%] | 14C-Proline Incorporated into Collagenous Protein (cpm/mg protein) (mean ± S.E.) ([1]; 8.3 μg/CAM, BTO-967 experiment, control 6300 ± 696) [cpm/mg_protein] | % Inhibition ([1]; 25 μg/CAM, BTO-967 experiment) [%] | 14C-Proline Incorporated into Collagenous Protein (cpm/mg protein) (mean ± S.E.) ([1]; 25 μg/CAM, BTO-967 experiment, control 6300 ± 696) [cpm/mg_protein] | % Inhibition ([1]; 75 μg/CAM, BTO-967 experiment) [%] | 14C-Proline Incorporated into Collagenous Protein (cpm/mg protein) (mean ± S.E.) ([1]; 75 μg/CAM, BTO-967 experiment, control 6300 ± 696) [cpm/mg_protein] |
| --- | --- | --- | --- | --- | --- | --- | --- | --- | --- | --- | --- | --- | --- | --- | --- |
| COc1ccc(Oc2c(I)cc(C=O)cc2I)cc1 [BTO-964, 3,5-Diiodo-4-(4'-methoxyphenoxy)benzadehyde] | 15 | 9526 ± 1492 | 27 | 8121 ± 1096 | 10 | 10076 ± 928 | antiangiogenic effect | positive response | 876±126 | – | – | – | – | – | – |
| COC(=S)c1cc(I)c(Oc2ccc(OC)cc2)c(I)c1 [BTO-967, methyl 3,5-diiodo-4-(4'-methoxyphenoxy)thiobenzoate] | – | – | – | – | – | – | antiangiogenic effect | – | – | 13 | 5222 ± 692 | 3 | 6165 ± 1288 | 11 | 5581 ± 1182 |
